# Measured values from patent US20230039836A1, “AROMATIC SULPHONAMIDES DERIVATIVES THAT INHIBITS PDI A3, THEIR SYNTHESIS AND USE” (Uniwersytet Jagiellonski, priority 2020, published 2023).
# Read-outs that look alike come from different tables or passages of the source.
# Columns and labels:
# MCF-7 [1] = test: MTT antiproliferative assay, 72 h, with or without estradiol; assay type: cell-based, human; settings: for Selectivity index (SI): IC50 of MCF-10A/ IC50 of MCF-7 / IC50: 72 hours exposition; for IC50: Homo sapiens, MCF7, MTT
# Protocol: (§1) Anticancer activity of PDI A1-inhibitors has been also tested in vitro in antiproliferative essay in normoxic and hypoxic conditions as well in estrogen-stimulated cancer cells. In the experiment, cells were seeded on 96-well plates (Sarstedt, Germany) in appropriate culture medium at a density of 10^5 cells/mL 24 h before adding the tested compounds. Cells were treated with each compound in four concentrations in the range 0.1-100 ug/mL. […] After 72 h of compound treatment at 37° C., 5 % CO2 humid atmosphere and in wo different oxygen level conditions: 21% - normal and <1% - hypoxia. In some experiments, the MDA-MB-231 and MCF-7 cells were seeded with or without 200 nM estradiol and after 24 h the tested compounds were added. A previously described sulforhodamine B antiproliferative assay was used with minor modifications (Skehan P et al., 1990). Briefly, cells were fixed with 50 µL/well of 50% (w/v) trichloroacetic acid (Avantor Performance Materials, Gliwice, Poland). After 1 h incubation, plates were washed several times with tap water and 50 µL of 0.4% (w/v) solution of sulforhodamine B (Sigma-Aldrich, Germany) in 1% (v/v) acetic acid (Avantor Performance Materials, Gliwice, Poland) was added to each well. After 30 min incubation at room temperature, unbound dye was washed out with 1% (v/v) acetic acid, whereas bound dye was solubilized with 10 mM unbuffered TRIS (Avantor Performance Materials, Gliwice, Poland) solution. The entire procedure was performed using a BioTek EL-406 washing station (BioTek Instruments, USA). After additional 30 min, absorbance was read using a Biotek Hybrid H4 reader (BioTek Instruments, USA) at 540 nm wavelength. MTT assay was used alternatively for HL-60 cell line and in the experiment in which estrogens are added (specified in the table legend). Absorbance was measured using a Biotek Hybrid H4 reader at 570 nm wavelength for MTT assay.
# (§2) Compounds at each concentration were tested in triplicate in a single experiment and each experiment was repeated at least three times independently.
# (§3) Results of in vitro antiproliferative effects are shown in Table 3 and Table 4 and are presented as mean IC50 ± SD calculated using the Prolab-3 system based on Cheburator 0.4 software.
# (§4) Statistical analysis: Unpaired t test. *p<0.05 as compared to appropriate cells not pretreated with estradiol. MTT assay was used for antiproliferative activity assessment.
# MDA-MB-231 [2] = test: as above; assay type: cell-based, human; settings: for IC50: Homo sapiens, MDA-MB-231, 72 hours exposition, MTT; for Change of antiproliferative activity towards MDA-MB-231 during simultaneous incubation with estradiol: with estradiol versus without
# Protocol: as §1, §2, §3, §4
# HT-29 [3] = test: MTT antiproliferative assay, 72 h; assay type: cell-based; settings: Homo sapiens, 72 hours exposition, read-out: IC50 [µg/ml] HT-29 normal
# Protocol: as §1, §2, §3, §4
# HL-60 = test: MTT antiproliferative assay, 72 h; assay type: cell-based; settings: Homo sapiens, 72 hours exposition, read-out: IC50 [µg/ml] HL-60 normal
# Protocol: as §1, §2, §3, §4
# HT-29 [4] = test: Sulforhodamine B antiproliferative assay, 72 h; assay type: cell-based, human; settings: normal (21% of oxygen), 72-hour exposition
# Protocol: as §1, §2, §3
# MCF-7 [5] = test: Sulforhodamine B antiproliferative assay, 72 h, normal and hypoxia; assay type: cell-based, human; settings: 72-hour exposition; for IC50 [µg/ml] MCF-7 hypoxia: hypoxia (<1% of oxygen); for IC50 [µg/ml] MCF-7 normal: normal (21% of oxygen)
# Protocol: as §1, §2, §3
# MDA-MB-231 [6] = test: as above; assay type: cell-based, human; settings: 72-hour exposition; for IC50 [µg/ml] MDA-MB-231 hypoxia: hypoxia (<1% of oxygen); for IC50 [µg/ml] MDA-MB-231 normal: normal (21% of oxygen)
# Protocol: as §1, §2, §3
# Caco-2 = test: Sulforhodamine B antiproliferative assay, 72 h; assay type: cell-based, human; settings: normal (21% of oxygen), 72-hour exposition
# Protocol: In the experiment, cells were seeded on 96-well plates (Sarstedt, Germany) in appropriate culture medium at a density of 10^5 cells/mL 24 h before adding the tested compounds. Cells were treated with each compound in four concentrations in the range 0.1-100 ug/mL. […] Briefly, cells were fixed with 50 µL/well of 50% (w/v) trichloroacetic acid (Avantor Performance Materials, Gliwice, Poland). After 1 h incubation, plates were washed several times with tap water and 50 µL of 0.4% (w/v) solution of sulforhodamine B (Sigma-Aldrich, Germany) in 1% (v/v) acetic acid (Avantor Performance Materials, Gliwice, Poland) was added to each well. After 30 min incubation at room temperature, unbound dye was washed out with 1% (v/v) acetic acid, whereas bound dye was solubilized with 10 mM unbuffered TRIS (Avantor Performance Materials, Gliwice, Poland) solution. […] After additional 30 min, absorbance was read using a Biotek Hybrid H4 reader (BioTek Instruments, USA) at 540 nm wavelength.
# PDI A1 = biological target: T1, PDI A1 (Homo sapiens, UniProt P07237); test: Insulin turbidometric assay, inhibition of PDI A1; assay type: biochemical; settings: insulin reduction, turbidity at 650 nm, 60 min incubation at 37° C.; read-out: Inhibition of PDI A1 (EC 50)
# T1 construct: purchased Mybiosource; host or cells: E. coli
# T1 sequence (P07237 18-508, species assumed): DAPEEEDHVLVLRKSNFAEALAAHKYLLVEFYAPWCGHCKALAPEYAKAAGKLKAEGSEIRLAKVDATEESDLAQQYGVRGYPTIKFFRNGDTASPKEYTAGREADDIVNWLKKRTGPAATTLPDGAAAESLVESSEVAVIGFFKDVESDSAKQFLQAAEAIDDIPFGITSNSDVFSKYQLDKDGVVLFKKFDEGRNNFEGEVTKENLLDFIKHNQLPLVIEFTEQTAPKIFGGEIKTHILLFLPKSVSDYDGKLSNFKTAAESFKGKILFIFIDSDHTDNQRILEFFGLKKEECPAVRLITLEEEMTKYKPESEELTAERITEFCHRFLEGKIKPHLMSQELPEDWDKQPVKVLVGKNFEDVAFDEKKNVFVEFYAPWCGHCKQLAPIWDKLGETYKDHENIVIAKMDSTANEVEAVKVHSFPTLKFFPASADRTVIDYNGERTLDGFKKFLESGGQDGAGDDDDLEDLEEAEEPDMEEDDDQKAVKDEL
# Protocol: The inhibitory effects compounds of invention on activity of PDI A1 was assess based on the insulin turbidometric assay. Enzymatic activity of PDIA1 was confirmed by measuring the turbidity increase at 650 nm due to insulin reduction. The assay mixture was prepared by addition 10 ug/ml PDIA1 (E.coli recombinant protein; Mybiosource), 0.1 mM phosphate buffer (pH7.6), 1 mM EDTA, 0.087 mM DTT and with or without tested compound and was incubated for 60 min, at 37° C. Reaction was started by addition insulin and DTT. Final concentration of insulin and DTT in assay mixture was 0.15 mM and 0.174 mM, respectively. Turbidity was detected at 650 nm against reference samples without PDI A1s. The measurements were performed at 650 nm using 120-s recordings.
# [7] = system: Caco-2 (human colon adenocarcinoma); test: MTT antiproliferative assay, 48 h; assay type: cell-based; settings: Homo sapiens, Caco-2, 48-hour exposition, read-out: Cytotoxicity, IC50, µM CaCo-2
# Protocol: (§5) About 2000-4000 cells per well (depending on line nature) were placed in 96-well plates and after 24 h compounds were added to the wells. Untreated cells were used as a control. The plates were incubated for 48 h, 37° C., 5% CO2. The number of surviving cells was determined using 3-(4,5-dimethylthiazol-2-yl)-2,5-diphenyltetrazolinium bromide (MTT). MTT-test: after incubating culture medium was removed and 200 µL fresh medium with 20 µL MTT (2 mg/mL in HBSS) was added in each well of the plate. After incubation (3 hr., 37° C., 5% CO2), the medium with MTT was removed and 200 µL DMSO were added at once to each sample. The samples were tested at 540 nm on Thermo Scientific Multiskan EX microplate photometer. The half-maximal inhibitory concentration (IC50) of each compound was calculated using Graph Pad Prism® 3.0.
# [8] = system: MDA-MB-231 (human mammary breast adenocarcinoma); test: MTT antiproliferative assay, 48 h; assay type: cell-based; settings: Homo sapiens, MDA-MB-231, 48-hour exposition, read-out: Cytotoxicity, IC50, µM MDA-MB-231
# Protocol: as §5
# [9] = system: MCF-7 (human breast adenocarcinoma, estrogen-positive); test: MTT antiproliferative assay, 48 h; assay type: cell-based; settings: Homo sapiens, MCF7, 48-hour exposition, read-out: Cytotoxicity, IC50, µM MCF-7
# Protocol: as §5
# [10] = system: HT-1080 (human fibrosarcoma); test: MTT antiproliferative assay, 48 h; assay type: cell-based; settings: 48-hour exposition, read-out: Cytotoxicity, IC50, µM HT-1080
# Protocol: as §5
# [11] = 200 nM estradiol, read-out: IC50 [µg/ml] MCF-7 + estradiol
# [12] = not pretreated with estradiol, read-out: IC50 [µg/ml] MCF-7 normal
# [13] = 200 nM estradiol, read-out: IC50 [µg/ml] MDA-MB-231 + estradiol
# [14] = not pretreated with estradiol, read-out: IC50 [µg/ml] MDA-MB-231 normal
Compound,Selectivity index (SI): IC50 of MCF-10A/ IC50 of MCF-7 (MCF-7 [1]),IC50 (MCF-7 [1]; [11]) [µg/mL],IC50 (MCF-7 [1]; [12]) [µg/mL],IC50 (MDA-MB-231 [2]; [13]) [µg/mL],IC50 (MDA-MB-231 [2]; [14]) [µg/mL],IC50 (HT-29 [3]) [µg/mL],IC50 (HL-60) [µg/mL],IC50 [µg/ml] HT-29 normal (HT-29 [4]) [µg/mL],IC50 [µg/ml] MCF-7 hypoxia (MCF-7 [5]) [µg/mL],IC50 [µg/ml] MCF-7 normal (MCF-7 [5]) [µg/mL],IC50 [µg/ml] MDA-MB-231 hypoxia (MDA-MB-231 [6]) [µg/mL],IC50 [µg/ml] MDA-MB-231 normal (MDA-MB-231 [6]) [µg/mL],IC50 [µg/ml] Caco-2 normal (Caco-2) [µg/mL],EC50 (PDI A1) [µM],Change of antiproliferative activity towards MDA-MB-231 during simultaneous incubation with estradiol (MDA-MB-231 [2]),IC50 [7] [µM],IC50 [8] [µM],IC50 [9] [µM],IC50 [10] [µM],Change in sensitivity of MCF-7 after addition of estradiol (MCF-7 [1]; with estradiol versus without)
"CCCCCCc1ccc(S(=O)(=O)N2CC2C(=O)NC)cc1 (centres unmarked) [Compound C-3380, 1-(4-Hexylphenyl)sulfonyl-N-methyl-aziridine-2-carboxamide]",0.75,26.3 ± 4.3,25.5 ± 2.3,26.3 ± 2.5,26.1 ± 1,34.6 ± 2.2,5.3 ± 2.8,,,,,,,,,,,,,
"O=C(C1CC1)N1CCN(Cn2sc3ccccc3c2=O)CC1 [LOC14, reference compound]",,,,,,,,12.6 ± 8.4,3.9 ± 0.3,4.4 ± 0.9,2.6 ± 0.5,2.8 ± 0.4,9.1 ± 3.4,,,,,,,
"COC(=O)C1CN1S(=O)(=O)c1ccc(F)cc1F (centres unmarked) [Compound C-3353, Methyl 1-(2,4-difluorophenyl)sulfonylaziridine-2-carboxylate]",3.36,5.8 ± 1.3,6.2 ± 1.8,25.7 ± 1.9,24.2 ± 2.6,35.9 ± 1.3,2 ± 0.1,,,,,,,5,,,,,,
"CCCCCCc1ccc(S(=O)(=O)N2CC2C(N)=O)cc1 (centres unmarked) [Compound C-3389, 1-(4-Hexylphenyl)sulfonylaziridine-2-carboxamide]",0.23,18.4 ± 4.3,26.7 ± 4.5,28 ± 1.7,23.2 ± 1,31.2 ± 6.7,2.8 ± 0.8,,,,,,,0.03,slight decrease of antiproliferative activity,49 ± 2,32 ± 3,47 ± 6,36 ± 3,
"COc1ccc(N2C(=O)/C(=C\c3ccc([N+](=O)[O-])s3)SC2=S)cc1 [CCF642, reference compound]",,,,,,,,0.4 ± 0.05,0.6 ± 0.6,0.7 ± 0.5,0.3 ± 0.2,0.3 ± 0.1,0.4 ± 0.1,,,,,,,
"CCCCCCc1ccc(S(=O)(=O)N2CC2C(=O)OC)cc1 (centres unmarked) [Compound C-3287, Methyl 1-(4-hexylphenyl)sulfonylaziridine-2-carboxylate]",1.10,29.3 ± 4.1,31.3 ± 0.6,23.8 ± 2.3,6.4 ± 0.8,31.5 ± 4.9,0.5 ± 0.3,,,,,,,0.05,slight decrease of antiproliferative activity,,,123 ± 17,,
"COC(=O)C1CN1S(=O)(=O)c1cccc2c(N(C)C)cccc12 (centres unmarked) [Compound C-3326, Methyl 1-[[5-(dimethylamino)-1-naphthyl]sulfonyl]aziridine-2-carboaylate]",4.84,10.4 ± 2.4,5.4 ± 1.7,17.7 ± 2.1,15.7 ± 3.1,39.2 ± 6.5,1.9 ± 0.6,,,,,,,,,170 ± 20,169 ± 20,349 ± 13,100 ± 5,slight decrease in sensitivity
